pIC50: −log10 of the molar value. “Also recorded” adds a separate entry of the source.
Assays:
[1] = tested on: NSCLC A549 (KRASG12S) xenografts; test: A549 lung cancer xenograft; type: in vivo; settings: 10 mg/kg twice daily i.p.
Procedure: Finally, to test whether 249C could inhibit autophagy and attenuate the growth of mutant KRAS-dependent cancers as a single agent in vivo, we evaluated 249C in a mouse xenograft model of lung cancer (NSCLC, A549). Briefly, we injected mutant KRAS A549 (G12S) cells into the flanks of athymic mice to establish xenografts, randomly assigned mice to vehicle control (n = 7) or 249C-recipient groups (n = 7, 10 mg/kg) with twice daily i.p. injections, and recorded tumor volume and body weight over time. […] We subsequently sacrificed all mice and excised their tumors for further investigation.
5 × 10^6 A549 cells were subcutaneously injected into the lower left flank of 6–8-week old athymic nude female mice (Charles River strain # 088, homozygous NU/NU). To assess establishment of tumors, mice were examined 5 days post-inoculation and were randomly segregated into two treatment groups [vehicle control, 10 mg/kg 249C IP, n = 7 per group] and were treated twice daily with the drug in NPM or vehicle control (5% weight aqueous solution of carboxymethyl cellulose). Tumor volumes were calculated using the formula (L × W × H)/2 with recorded caliper measurements. Survival curves and statistical analyses were performed using Excel. Animals were maintained on a standard chow diet; 12:12 dark/light cycle and in group housing in hepa-filtered cages. All animal procedures were performed under IACUC approved protocols and guidelines. Animals from both groups were weighed every 3 days. Plasma concentration was measured from blood collected using standard and established protocols.

Yeast V-ATPase = target: T1, Yeast V-ATPase (Saccharomyces cerevisiae, UniProt P25515+P41807); test: Biochemical V-ATPase (ATP hydrolysis) assay
T1 construct: V-ATPase was purified as described previously from yeast[82] using the detergent dodecylmaltoside; endogenous in cells; host or cells: yeast
Procedure: V-ATPase was purified as described previously from yeast[82] using the detergent dodecylmaltoside and porcine kidney[83] using the detergent glycol-diosgenin. ATPase assays with purified V-ATPase were performed as described previously. 249C (mammalian: 0.1, 1, 10, 100 μM and yeast: 5, 10 and 100 μM) or BafA1 (1 μM) were added to the reaction and compared with a negative control to which only DMSO was added. Enzyme-coupled ATPase biochemical activity assays were performed in a 96-well plate as described previously. […]
appears to cause accumulation of high molecular weight entities. Representative of 3 independent experiments. […]
observed. Data shown are mean ± SD ( n = 3) Two-tailed student’s t-test (C) ATP-dependent fluorescence quenching in yeast (me an ± SD; n = 3 ) Two-t ailed student’s t-test (D) SDS PAGE over th e cou rse of recombinant human ATP6V1H protein purification. 1. Mark ers; 2. Total l ysate (GST-fusion […]); 3. Soluble lysate; 4.
GSTrap flow-through; 5. GSTrap elute; 6. Post thrombin cleavage (target 54 kDa, GST 25 kDa); 7. Subtractive GSTrap flow -through; 8. Markers; 9. Final sample, 1 µg protein load. Repres entative of 2 independent ex periments. (E) Structure of biotin- 249C. […]
interfere with V-ATPas e binding. ( F) Experimental schematic of Bio-la yer inferometr y (B L I) .
(1 picture or pasted object on this page, not shown here)

[2] = Maximum tolerated dose study; type: in vivo
Description: MTD studies were outsourced and performed at a local CRO based on their established protocols.

[3] = tested on: V-ATPase-dependent proton transport in HEK293T cells; test: Proton pumping assay, FITC-Dextran-loaded lysosomes; type: cell-based, human; settings: 1 h treatment
Description: Figure 4. […] (A) Model of the reversible assembly of V-ATPase. Cytosolic V1 subunits are depicted in blue and membrane Vo subunits in purple. Upon V-ATPase assembly, ATP is hydrolyzed to ADP accompanied by proton (H^+) pumping and luminal acidification (decrease in pH) (Created with BioRender). […] The amount of subunit B2 present in the membrane fraction indicates the amount of assembled V-ATPase. A representative Western blot is presented. […] Cells were mechanically lysed, and a fraction containing FITC-Dextran-loaded lysosomes was isolated by sedimentation centrifugation. Fluorescence was measured over time to assess pH-dependent quenching following addition of 1 mM magnesium-ATP (predetermined). […] Representative of 5 individual experiments with n = 3 for each is presented (mean ± SD) (D) Mammalian V-ATPase activity measured in the absence and presence of 1 μM 249C and 1 μM BafA1. Data shown are mean ± SD; n = 3. […]
4 × 10^6 HEK 293T cells were plated in 10-cm plates. […] Sample fluorescence was excited at 490 nm, and emission fluorescence at 520 nm was measured continuously in BioTek plate reader (Synergy) using Gen5 software (version 3.05). After initial fluorescence stabilization, 1 mM ATP and 2 mM MgCl2 were added to initiate ATPase activity and proton pumping into the lysosomes, which causes quenching of FITC in the lysosomal lumen. […]

MEFs KRASWT = test: Cell proliferation of Ras-less MEFs expressing human KRAS/BRAF; settings: Mus musculus
Procedure: Cell proliferation assays of stable cell lines treated with V-ATPase inhibitors 249C and BafA1, HCQ analog (DC661), KRASG12C inhibitor (AMG510) and autophagy inducer (CMA). For each bar, n = 3. Representative of 3 biological replicates (mean ± SD). Two-sided t-test with no adjustments for multiple comparisons.
Logarithmically growing cells were plated in antibiotic-free medium supplemented with 2% fetal bovine serum at a density of 5,000 cells per well. The next day, cells were treated in triplicates with increasing doses of in-house small molecule inhibitor drugs and a DMSO vehicle control for 3 days and subsequently assessed for cell viability by measurement of ATP with CellTiter-Glo Luminescent Cell Viability Assay (Promega). Signal intensity was read on a Glomax™ 96 Microplate Luminometer (Promega) with GLOMAX software (version 1.9.3) and percent cell survival was calculated based on the reading of vehicle control cells set as 100% using Excel (2012) and GraphPad Prism (version 6)Each compound was tested a minimum of 2 times with n = 3. All cell proliferation assays (cancer cell lines or MEFs) were done in a similar way.

T1 sequence (P25515 whole entry): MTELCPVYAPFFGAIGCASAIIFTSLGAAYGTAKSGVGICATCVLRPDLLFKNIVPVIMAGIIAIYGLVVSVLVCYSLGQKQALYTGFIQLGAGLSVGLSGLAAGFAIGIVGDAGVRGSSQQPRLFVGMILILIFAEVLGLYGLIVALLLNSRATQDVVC
T1 sequence (P41807 2-478): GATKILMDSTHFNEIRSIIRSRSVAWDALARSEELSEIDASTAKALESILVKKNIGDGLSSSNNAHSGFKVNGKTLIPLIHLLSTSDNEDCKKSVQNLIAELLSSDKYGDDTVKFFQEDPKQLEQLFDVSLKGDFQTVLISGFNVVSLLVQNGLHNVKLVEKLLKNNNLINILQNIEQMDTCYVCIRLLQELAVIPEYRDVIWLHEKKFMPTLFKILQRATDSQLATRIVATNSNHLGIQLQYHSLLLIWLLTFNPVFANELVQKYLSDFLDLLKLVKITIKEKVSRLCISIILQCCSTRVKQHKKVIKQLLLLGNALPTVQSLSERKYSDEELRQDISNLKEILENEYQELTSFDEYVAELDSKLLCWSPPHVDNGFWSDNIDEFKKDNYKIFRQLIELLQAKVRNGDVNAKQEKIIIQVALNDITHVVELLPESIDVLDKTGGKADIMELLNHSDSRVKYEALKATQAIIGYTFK

**Q.** What does the source list for `CN1CCOC(CNC(=O)C2(C)C(c3ccc(Cl)o3)C(c3ccc(F)cc3F)=NN2c2ccc(F)cc2F)C1` (centres unmarked) [Compound 249C]?
**A.** tumor volume vs vehicle ([1]; athymic mice): significantly lower; tumor mass vs vehicle ([1]; end point): lower; tissue weight of treated mice vs vehicle ([1]; mice bearing A549 xenografts): No significant difference in tissue weight; Yeast V-ATPase activity (Yeast V-ATPase): modest inhibition; body weight ([2]; 150 mg/kg, after 21 days in vivo): no significant difference in body weight; MTD at 21 days ([2]; mouse, in vivo, mice): 150 mg/kg; V-ATPase-dependent proton transport (ATP-dependent fluorescence quenching) [3]: inhibited V-ATPase-dependent proton transport; also recorded: ATP-dependent fluorescence quenching was not observed; pIC50 (MEFs KRASWT): 5.90

Source: PMC9750872, “Ras-mutant cancers are sensitive to small molecule inhibition of V-type ATPases in mice” (Nature biotechnology, 2022)
